Laboratory results taken from patent US9802943B2, “HIV inhibiting bicyclic pyrimidine derivatives” (Janssen Sciences Ireland UC, priority 2004, dated 2017).

Tests used:
Assay type in all cases: cell-based
[1] = system: Strain F (mutations K103N and Y181C in HIV reverse transcriptase); test: cellular antiviral assay, HIV mutant strain F; conditions: for pEC50 F: strain F, K103N and Y181C; for EC50: Human immunodeficiency virus 1, read-out: pEC50 F (converted)
Method: (§1) Because of the increasing emergence of drug resistant HIV strains, the present compounds were tested for their potency against clinically isolated HIV strains harboring several mutations. These mutations are associated with resistance to reverse transcriptase inhibitors and result in viruses that show various degrees of phenotypic cross-resistance to the currently commercially available drugs such as for instance AZT and delavirdine.
(§2) The antiviral activity of the compound of the present invention has been evaluated in the presence of wild type HIV and HIV mutants bearing mutations at the reverse transcriptase gene. The activity of the compounds is evaluated using a cellular assay and the residual activity is expressed in pEC50 values. The columns IIIB and A-G in the table list the pEC50 values against various strains IIIB, A-G. • Strain IIIB is wild type HIV-LAI strain • Strain A contains mutation Y181C in HIV reverse transcriptase, • Strain B contains mutation K103N in HIV reverse transcriptase, • Strain C contains mutation L100I in HIV reverse transcriptase, • Strain D contains mutation Y188L in HIV reverse transcriptase, • Strain E contains mutations L100I and K103N in HIV reverse transcriptase, • Strain F contains mutations K103N and Y181C in HIV reverse transcriptase, and • Strain G contains mutations L100I, K103N, Y181C, V179I E138G L214F, V278V/I • and A327A/V in HIV reverse transcriptase.

[2] = system: Strain E (mutations L100I and K103N in HIV reverse transcriptase); test: cellular antiviral assay, HIV mutant strain E; conditions: for pEC50 E: strain E, L100I and K103N; for EC50: Human immunodeficiency virus 1, read-out: pEC50 E (converted)
Method: as §1, §2

[3] = system: Strain D (mutation Y188L in HIV reverse transcriptase); test: cellular antiviral assay, HIV mutant strain D; conditions: for pEC50 D: strain D, Y188L; for EC50: Human immunodeficiency virus 1, read-out: pEC50 D (converted)
Method: as §1, §2

[4] = system: Strain C (mutation L100I in HIV reverse transcriptase); test: cellular antiviral assay, HIV mutant strain C; conditions: for pEC50 C: strain C, L100I; for EC50: Human immunodeficiency virus 1, read-out: pEC50 C (converted)
Method: as §1, §2

[5] = system: Strain A (mutation Y181C in HIV reverse transcriptase); test: cellular antiviral assay, HIV mutant strain A; conditions: for pEC50 A: strain A, Y181C; for EC50: Human immunodeficiency virus 1, read-out: pEC50 A (converted)
Method: as §1, §2

[6] = system: Strain B (mutation K103N in HIV reverse transcriptase); test: cellular antiviral assay, HIV mutant strain B; conditions: for pEC50 B: strain B, K103N; for EC50: Human immunodeficiency virus 1, read-out: pEC50 B (converted)
Method: as §1, §2

[7] = system: Strain IIIB (wild type HIV-LAI strain); test: cellular antiviral assay, wild type HIV; conditions: for pEC50 IIIB: strain IIIB, wild type HIV-LAI; for EC50: Human immunodeficiency virus 1, IIIB, read-out: pEC50 IIIB (converted)
Method: as §1, §2

[8] = system: Strain G (mutations L100I, K103N, Y181C, V179I E138G L214F, V278V/I and A327A/V in HIV reverse transcriptase); test: cellular antiviral assay, HIV mutant strain G; conditions: for pEC50 G: strain G, L100I, K103N, Y181C, V179I E138G L214F, V278V/I and A327A/V; for EC50: Human immunodeficiency virus 1, read-out: pEC50 G (converted)
Method: as §1, §2

SMILES	pEC50 F [1]	pEC50 E [2]	pEC50 D [3]	pEC50 C [4]	pEC50 A [5]	pEC50 B [6]	pEC50 IIIB [7]	pEC50 G [8]	EC50 [1] [nM]	EC50 [2] [nM]	EC50 [3] [nM]	EC50 [4] [nM]	EC50 [5] [nM]	EC50 [6] [nM]	EC50 [7] [nM]	EC50 [8] [nM]
Cc1cc(/C=C/C#N)cc(C)c1-n1ccc2c(C)nc(Nc3ccc(C#N)cc3)nc21 [Compound 28]	7.8	8.5	7.7	8.6	7.9	8.5	8.5	5.7	–	–	–	–	–	–	–	–
Cc1cc(C=CC#N)cc(C)c1N1CCc2c(C)nc(Nc3ccc(C#N)cc3)nc21 (mixture of isomers) [Compound 11]	7.9	8.4	8.1	8.8	8.2	9	8.8	5.4	–	–	–	–	–	–	–	–
CCc1nc2cnc(Nc3ccc(C#N)cc3)nc2n1-c1c(C)cc(/C=C/C#N)cc1C [Compound 22]	–	–	–	–	–	–	–	–	1580	3160	1580	316	316	3.98	3.98	–
N#C/C=C/c1cc(F)c(-n2c(N)nc3cnc(Nc4ccc(C#N)cc4)nc32)c(Cl)c1 [Compound 27]	–	–	–	–	–	–	–	–	200	631	501	79.4	79.4	–	20	6310
Cc1nc(Nc2ccc(C#N)cc2)nc2c1CCN2c1c(Cl)cc(C=CC#N)cc1Cl (mixture of isomers) [Compound 7a]	7.7	8.6	7.7	9.1	7.9	8.7	8.7	5.4	–	–	–	–	–	–	–	–
Cc1nc(Nc2ccc(C#N)cc2)nc2c1CCN2c1c(Cl)cc(C=CC#N)cc1Cl (mixture of isomers) [Compound 7b]	7.7	8.5	7.7	9.1	8.1	9	9.1	5.4	–	–	–	–	–	–	–	–
COc1cc(/C=C/C#N)cc(C)c1N1CCc2c(C)nc(Nc3ccc(C#N)cc3)nc21 [Compound 8]	7.2	7.6	7.5	8.3	7.6	8.4	8.5	4.9	–	–	–	–	–	–	–	–
Cc1nc(Nc2ccc(C#N)cc2)nc2c1CCN2c1c(F)cc(/C=C/C#N)cc1Cl [Compound 10]	7.9	8.7	8	9.2	8.4	9.1	9.2	5.7	–	–	–	–	–	–	–	–
CCc1cc(CCC#N)cc(CC)c1N1CCc2c(C)nc(Nc3ccc(C#N)cc3)nc21 [Compound 16]	7.3	8.1	7	8.6	7.7	8.2	8.2	5.8	–	–	–	–	–	–	–	–
CCc1cc(C=CC#N)cc(Br)c1N1CCc2c(C)nc(Nc3ccc(C#N)cc3)nc21 (mixture of isomers) [Compound 6]	7.5	8.3	7.5	8.4	7.7	8.3	8.3	5.5	–	–	–	–	–	–	–	–
Cc1cc(C=CC#N)cc(Br)c1N1CCc2c(C)nc(Nc3ccc(C#N)cc3)nc21 (mixture of isomers) [Compound 9]	7.7	7.8	8.4	8.7	8.3	8.4	8.9	<4.6	–	–	–	–	–	–	–	–
CCc1cc(/C=C/C#N)ccc1N1CCc2c(C)nc(Nc3ccc(C#N)cc3)nc21 [Compound 4]	7.6	8.1	7.9	9	8.3	9	8.4	5.1	–	–	–	–	–	–	–	–
Cc1cc(C=CC#N)ccc1N1CCc2c(C)nc(Nc3ccc(C#N)cc3)nc21 (mixture of isomers) [Compound 1]	7.1	7.8	7.7	8.9	7.9	9	8.4	5.5	–	–	–	–	–	–	–	–
Cc1cc(/C=C/C#N)cc(C)c1-n1c(N)nc2cnc(Nc3ccc(C#N)cc3)nc21 [Compound 26]	–	–	–	–	–	–	–	–	63.1	126	79.4	20	25.1	12.6	2.51	12600
N#C/C=C/c1cc(F)c(-n2cnc3cnc(Nc4ccc(C#N)cc4)nc32)c(Cl)c1 [Compound 24]	–	–	–	–	–	–	–	–	12.6	6.31	12.6	0.2	3.16	0.1	0.1	2000
Cc1cc(CCC#N)cc(C)c1N1CCc2c(C)nc(Nc3ccc(C#N)cc3)nc21 [Compound 15]	8	8	7.3	–	8.2	8.6	9	5.7	–	–	–	–	–	–	–	–
Cc1nc(Nc2ccc(C#N)cc2)nc2c1CCN2c1ccc(C=CC#N)cc1F (mixture of isomers) [Compound 5]	–	6.9	6.6	7.8	6.3	7.9	7.7	<4.6	–	–	–	–	–	–	–	–
Cc1cc(/C=C/C#N)cc(C)c1-n1c(-c2ccccc2)nc2cnc(Nc3ccc(C#N)cc3)nc21 [Compound 23]	6.4	6.3	7.7	7.5	7.1	7.6	7.7	5.7	–	–	–	–	–	–	–	–
Cc1cc(/C=C/C#N)cc(C)c1-n1c(-c2ccccn2)nc2cnc(Nc3ccc(C#N)cc3)nc21 [Compound 25]	7.2	5.9	7.5	7.2	7.5	7.6	8.1	5.6	–	–	–	–	–	–	–	–
CCc1cc(CCC#N)ccc1N1CCc2c(C)nc(Nc3ccc(C#N)cc3)nc21 [Compound 17]	7.2	7.8	7.7	8.6	8.2	8.9	9	5.7	–	–	–	–	–	–	–	–
Cc1nc(Nc2ccc(C#N)cc2)nc2c1CCN2c1c(F)cc(/C=C\C#N)cc1Cl [Compound 13]	7	7.8	7	8.4	7.1	8.4	8.4	5.1	–	–	–	–	–	–	–	–
Cc1cc(CCC#N)ccc1N1CCc2c(C)nc(Nc3ccc(C#N)cc3)nc21 [Compound 14]	6.9	7.2	7	8.4	7.8	8.5	8.9	5.5	–	–	–	–	–	–	–	–
Cc1nc(Nc2ccc(C#N)cc2)nc2c1CCN2c1c(F)cc(C=CC#N)cc1F (mixture of isomers) [Compound 2]	7.4	9.1	8.4	9.3	7.9	9.2	9.1	5.7	–	–	–	–	–	–	–	–
Cc1cc(/C=C/C#N)cc(C)c1-n1nnc2cnc(Nc3ccc(C#N)cc3)nc21 [Compound 29]	–	7.1	7.7	8.3	7.8	8.8	9.1	5.4	–	–	–	–	–	–	–	–
